# Measurements as given in patent US6649394B1, “Topoisomerase IV, corresponding nucleotide sequences and uses thereof” (priority 1997, dated 2003).
# Legend:
# [1] = target: T1, wild-type GrlAB protein (DNA topoisomerase IV) of S. aureus (Staphylococcus aureus, UniProt P0C1S7+P0C1U9); assay: Decatenation of kinetoplast DNA by purified wild-type GrlAB protein; format: biochemical
# T1 construct: made in house; host or cells: E. coli XL1-Blue (pXL2340 for GrlA, pXL2320 for GrlB; pRSETB vector, T7 promoter)
# Experimental: (§1) The ATP-dependent activity of decatenation of intertwined circular DNA molecules (catenanes) can be detected by carrying out the procedure, for example, in the following manner: a mixture of an extract of the E. coli strain XL1-blue pXL2320 (2.5 μg of proteins) and of an extract of the E. coli strain XL1-blue pXL2340 (2.5 μg of proteins) is incubated for 1 h at 37° C. in 40 μl of 50 mM Tris/HCl buffer pH 7.7 containing 1 mM ATP, 6 mM MgCl2, 200 mM glutamate, 10 mM DTT, 10 mM NaCl, 50 μg/ml of bovine serum albumin and 800 ng of kinetoplast DNA [consisting of a network of intertwined DNA molecules (catenanes) obtained from Crithidia fasciculata; TopoGene]. The reaction is stopped by adding 7 μl of a 250 mM EDTA solution (incubation 5 min at 37° C.), 5 μl of a 5% SDS and 2.5 mg/ml proteinase K mixture (incubation 30 min at 37° C.). The mixture is then analysed by electrophoresis on a 1% agarose gel in a 0.1 M Tris/borate buffer pH 8.3 containing 2 mM EDTA at 6 V/cm for 2 h 30 min. After staining the DNA with ethidium bromide (1 μg/ml), the DNA is quantified by scanning the negatives of photographs of the gels (Polaroid type 665 film) with the aid of a Bioimage 50S apparatus (Millipore). […] This activity is detected by the appearance of a DNA band with a size of about 2.5 kb and by the disappearance of the band of catenated DNA of very large size which penetrates very little into the gel during the electrophoretic run (FIG. 5).
# (§2) To carry out the experiments described in the examples which follow, the incubations are carried out with the purified wild-type GrlAB proteins as described in Example 7, and with the mutant protein GrlA(Ser-80→Tyr)B as described in Example 8. The two wild-type and mutant GrlAB proteins are reconstituted by mixing equimolar quantities of their two GrlA and GrlB subunits.
# [2] = system: mutant protein GrlA(Ser-80→Tyr)B (DNA topoisomerase IV) of S. aureus; assay: biochemical; parameters: species or system Staphylococcus aureus; conditions: GrlA(Ser-80→Tyr)B versus wild-type GrlAB
# Experimental: as §1
# (§3) The ATP-dependent activities of supercoiled DNA relaxation, on the one hand, and of decatenation of intertwined circular DNA molecules, on the other hand, are detected in this extract as described in Example 7, by incubating, in the same reaction mixture, an acellular extract of the E. coli strain XL1-Blue pXL2742 containing the protein GrlA(Ser-80→Tyr) and an extract of the E. coli strain XL1-Blue pXL2320 containing the GrlB protein.
# as §2
# [3] = target: T2, mutant protein GrlA(Ser-80→Tyr)B (DNA topoisomerase IV) of S. aureus (Staphylococcus aureus, UniProt P0C1S7+P0C1U9, F80Y); assay: biochemical
# T2 construct: made in house; host or cells: E. coli XL1-Blue (pXL2742 for GrlA Ser-80→Tyr, pXL2320 for GrlB)
# Experimental: as §1, §3, §2
Compound,concentration above which the activity of decatenation of kinetoplast DNA is completely inhibited ([1]; purified wild-type GrlAB enzyme) [µg/mL],IC50 [1] [µM],concentration for 50% inhibition with mutant enzyme relative to wild-type enzyme [2] [times],IC50 [3] [µM]
O=C(O)c1cn(C2CC2)c2cc(N3CCNCC3)c(F)cc2c1=O [ciprofloxacin],> 10,–,–,–
C[C@@H]1CN(c2c(F)c(N)c3c(=O)c(C(=O)O)cn(C4CC4)c3c2F)C[C@H](C)N1 [sparfloxacin],–,15.3,80,1270
CC1COc2c(N3CCN(C)CC3)c(F)cc3c(=O)c(C(=O)O)cn1c23 (centres unmarked) [Ofloxacin],–,27.7,–,692
CO[C@@H]1[C@@H](OC(N)=O)[C@@H](O)[C@H](Oc2ccc3c(O)c(NC(=O)c4ccc(O)c(CC=C(C)C)c4)c(=O)oc3c2C)OC1(C)C [novobiocin],–,~49,–,~49
